Structures can show the parent of a compound that is named as a salt. Where two headings read alike, the source gives them in different places. Values belong to the molecule of their own block, whether it stands above or below them.
Tests used:
[1] = target: H2 histamine receptors (Cavia porcellus, UniProt P47747); assay: cell-based; set-up: species or system guinea pig; settings: vs histamine dose-response, 32° C., pH 7.4
Procedure: The guinea pig heart atrium test is carried out as follows:
A guinea pig right atrium is suspended at 1 g. tension (isometric) in a thermostatically controlled (32° C.) tissue bath (10 ml) containing oxygenated (95% O2 ; 5% CO2) Krebs-Haenseleit buffer (pH 7.4). The tissue is allowed to stabilize over 1 hour. Individual contractions are recorded with a force-displacement transducer through a strain gauge coupler. A control dose-response curve to histamine in the above described tissue bath is obtained after which the tissue is washed 3 times and allowed to re-equilibrate to basal rate. The test compound is added to the tissue bath at the desired final concentration. Thirty minutes after addition of the compound, a fresh histamine dose response curve is again obtained. Then the response to histamine in the presence of antagonist is compared to the histamine control response. This procedure is repeated, using fresh tissues, for each concentration of antagonist tested. […] Cimetidine is used as the standard for this test.

[2] = system: gastric acid secretion; assay: gastric secretion in the rat, modified Shay procedure of pylorus ligation; type: in vivo; settings: intraduodenal, 4 h, i.d., four hours after ligation, read-out: % Inhibition (of acid output)
Procedure: The procedure for testing gastric secretion in the rat, a modification of the procedure of Shay et al., Gastroenterology, 26, 906-13 (1954) is carried out as follows: Male Charles River rats weighing 200-300 grams are deprived of food but not water for 24 hours prior to use. Water is, however, withheld during the experiment. The rats are weighed, anesthetized, and the pylorus ligated according to the method of Shay et al. Treatment or vehicle control is then administered interduodenally (i.d.). Rats are housed 2/cage and sacrificed with CO2 four hours after ligation. The stomachs are removed, rinsed, and contents emptied into a graduated centrifuge tube. The tubes are centrifuged for 20 minutes at 2,000 RPM and the volume of gastric juice recorded. Any samples obviously contaminated by feces, food or hemolysis are eliminated. An aliquot of each is frozen for later analysis of Na^+, K^+ and Cl^- concentration. The pH is measured and 1 ml. of gastric juice is titrated with 0.1N NaOH to a pH of 7.0-7.4. Titratable acid output is calculated in microequivalents and the percent inhibition of acid output is calculated as follows: [formula]

[3] = 30 min after addition, results of three experiments, read-out: pA2 Value (apparent dissociation constant of the H2 antagonist) (converted)
[4] = 30 min after addition, results of three experiments
[5] = marked *, result of only one experiment, read-out: KB value

Sequence of H2 histamine receptors (P47747 whole entry): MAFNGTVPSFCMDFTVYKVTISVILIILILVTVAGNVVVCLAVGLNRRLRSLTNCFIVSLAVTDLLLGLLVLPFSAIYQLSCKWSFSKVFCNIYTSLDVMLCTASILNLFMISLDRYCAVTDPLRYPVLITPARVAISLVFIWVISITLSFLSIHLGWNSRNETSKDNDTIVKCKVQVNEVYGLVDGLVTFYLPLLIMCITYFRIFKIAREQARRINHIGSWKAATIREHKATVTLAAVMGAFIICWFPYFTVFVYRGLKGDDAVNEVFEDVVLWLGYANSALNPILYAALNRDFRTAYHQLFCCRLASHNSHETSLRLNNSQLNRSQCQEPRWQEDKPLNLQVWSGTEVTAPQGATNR

pA2 Value (apparent dissociation constant of the H2 antagonist) [1, 4]: < 7.0
SMILES: O=S1(=O)N=C(NCCCOc2cccc(CN3CCOCC3)c2)c2ccccc21 [Example 16, N-[3-[3-(4-morpholinylmethyl)phenoxy]propyl]-1,2-benzisothiazol-3-amine 1,1-dioxide, hydrochloride]
inhibition in vivo at 32 mg/kg [2]: 39%

Kb [1, 3]: 200 nM
SMILES: CCN(CC)Cc1cccc(OCCCNC2=NS(=O)(=O)c3ccccc32)c1 [Example 19, N-[3-[3-[(diethylamino)methyl]phenoxy]propyl]-1,2-benzisothiazol-3-amine 1 ,1-dioxide, hydrochloride]
inhibition in vivo at 16 mg/kg [2]: 52%
inhibition in vivo at 32 mg/kg [2]: 78%

Kb [1, 3]: 79.4 nM
SMILES: CN(C)Cc1cccc(OCCCNC2=NS(=O)(=O)c3ccccc32)c1 [Example 21, N-[3-[3-[(dimethylamino)methyl]phenoxy]propyl]-1,2-benzisothiazol-3-amine 1,1-dioxide, hydrochloride, hemihydrate]
inhibition in vivo at 32 mg/kg [2]: 72%

Kb [1, 3]: 6.31 nM
SMILES: CCCCN(CCCC)Cc1cccc(OCCCNC2=NS(=O)(=O)c3ccccc32)c1 [Example 22, N-[3-[3-[(dibutylamino)methyl]phenoxy]propyl]-1,2-benzisothiazol-3-amine 1 ,1-dioxide, hydrochloride, hemihydrate]
inhibition in vivo at 4 mg/kg [2]: 42%
inhibition in vivo at 8 mg/kg ([2]; Dose 8 mg/kg): 62%
inhibition in vivo at 16 mg/kg [2]: 53%
inhibition in vivo at 32 mg/kg [2]: 68%

Kb [1, 3]: 25.1 nM
SMILES: O=S1(=O)N=C(NCCCOc2cccc(CN3CCSCC3)c2)c2ccccc21 [Example 23, N-[3-[3-[(4-thiomorpholinyl)methyl]phenoxy]propyl]-1,2-benzisothiazol-3-amine 1,1-dioxide, hydrochloride]

Kb [1, 3]: 40.7 nM
SMILES: O=S1(=O)N=C(NCCCOc2cccc(CN3CCSC3)c2)c2ccccc21 [Example 25, N-[3-[3-[(3-thiazolidinyl)methyl]phenoxy]propyl]-1,2-benzisothiazol-3-amine 1,1-dioxide, hydrochloride]
inhibition in vivo at 4 mg/kg [2]: 48%

Kb [1, 3]: 25.1 nM
SMILES: O=S1(=O)N=C(NCCCOc2cccc(CNC3CCCC3)c2)c2ccccc21 [Example 28, N-[3-[3-[(cyclopentylamino)methyl]phenoxy]propyl]-1,2-benzisothiazol-3-amine 1,1-dioxide, hydrochloride]
inhibition in vivo at 16 mg/kg [2]: 75%
inhibition in vivo at 32 mg/kg [2]: 49%

Kb [1, 3]: 63.1 nM
SMILES: CC(C)CN(Cc1cccc(OCCCNC2=NS(=O)(=O)c3ccccc32)c1)CC(C)C [Example 31, N-[3-[3-[[bis(2-methylpropyl)amino]methyl]phenoxy]-propyl]-1,2-benzisothiazol-3-amine 1,1-dioxide]

Kb [1, 3]: 63.1 nM
SMILES: CCCCNCc1cccc(OCCCNC2=NS(=O)(=O)c3ccccc32)c1 [Example 32, N-[3-[3-[(butylamino)methyl]phenoxy]propyl]-1,2-benzisothiazol-3-amine 1,1-dioxide, hydrochloride, hemihydrate]

Kb [1, 3]: 10 nM
SMILES: CCCCCN(C)Cc1cccc(OCCCNC2=NS(=O)(=O)c3ccccc32)c1 [Example 34, N-[3-[3-[(methylpentylamino)methyl]phenoxy]propyl]-1,2-benzisothiazol-3-amine 1,1-dioxide]

Kb [1, 5]: 14 nM
SMILES: CCCCN(CCC)Cc1cccc(OCCCNC2=NS(=O)(=O)c3ccccc32)c1 [Example 35, N-[3-[3-[(butylpropylamino)methyl]phenoxy]propyl]-1,2-benzisothiazol-3-amine 1,1-dioxide]
inhibition in vivo at 32 mg/kg [2]: 55%

Kb [1, 5]: 48 nM
SMILES: CCCCN(C)Cc1cccc(OCCCNC2=NS(=O)(=O)c3ccccc32)c1 [Example 36, N-[3-[3-[(butylmethylamino)methyl]phenoxy]propyl]-1,2-benzisothiazol-3-amine 1,1-dioxide]
inhibition in vivo at 32 mg/kg [2]: 84%

Further lines, the molecule ahead of its results:

SMILES: O=S1(=O)N=C(NCCCOc2cccc(CN3CCCCC3)c2)c2ccccc21 [Example 2, N-[3-[3-[(1-piperidinyl)methyl]phenoxy]propyl]-1,2-benzisothiazol-3-amine 1,1-dioxide]
Kb [1, 3]: 7.94 nM

SMILES: NC(N)=Nc1nc(CSCCNC2=NS(=O)(=O)c3ccccc32)cs1 [Example 3, [4-[[[2-[(1,2-benzisothiazol-3yl)amino]ethyl]thio]methyl]-2-thiazolyl]guanidine S',S'-dioxide]
Kb [1, 3]: 2 nM

SMILES: O=C1N=C(NCCCOc2cccc(CN3CCCCC3)c2)c2ccccc21 [Example 4, 3-[[3-[3-[(1-piperidinyl)methyl]phenoxy]propyl]amino]-1H isoindol-1-one, dihydrochloride, quarter hydrate]
Kb [1, 3]: 251 nM

SMILES: O=[N+]([O-])c1ccc2c(c1)S(=O)(=O)N=C2NCCCOc1cccc(CN2CCCCC2)c1 [Example 5, N-[3-[3-[(1-piperidinyl)methyl]phenoxy]propyl]-6-nitro-1,2-benzisothiazol-3-amine 1,1-dioxide, hydrochloride]
Kb [1, 3]: 50.1 nM

SMILES: Nc1ccc2c(c1)S(=O)(=O)N=C2NCCCOc1cccc(CN2CCCCC2)c1 [Example 6, N-[3-[3-[(1-piperidinyl)methyl]phenoxy]propyl]-6-amino-1,2-benzisothiazol-3-amine 1,1-dioxide]
Kb [1, 3]: 20 nM

SMILES: O=S1(=O)N=C(NCCCOc2cccc(CN3CCCCC3)c2)c2ccc(Cl)cc21 [Example 7, N-[3-[3-[(1-piperidinyl)methyl]phenoxy]propyl]-6-chloro-1,2-benzisothiazol-3-amine 1,1-dioxide, hydrochloride salt hemihydrate]
Kb [1, 3]: 31.6 nM

SMILES: O=S1(=O)N=C(NCCCOc2cccc(CN3CCCCC3)c2)c2ccc(F)cc21 [Example 8, N-[3-[3-[(1-piperidinyl)methyl]phenoxy]propyl]-6-fluoro-1,2-benzisothiazol-3-amine 1,1-dioxide]
Kb [1, 3]: 20 nM

SMILES: O=S1(=O)N=C(NCCCOc2cccc(CN3CCCCC3)c2)c2cc(Cl)c(Cl)cc21 [Example 9, N-[3-[3-[(1-piperidinyl)methyl]phenoxy]propyl]-5,6-dichloro-1,2-benzisothiazol-3-amine 1,1-dioxide, monohydrochloride salt]
pA2 Value (apparent dissociation constant of the H2 antagonist) [1, 4]: 6.7

SMILES: Cc1ccc2c(c1)C(NCCCOc1cccc(CN3CCCCC3)c1)=NS2(=O)=O [Example 10, N-[3-[3-[(1-piperidinyl)methyl]phenoxy]propyl]-5-methyl-1,2-benzisothiazol-3-amine 1,1-dioxide]
Kb [1, 3]: 50.1 nM

SMILES: O=S1(=O)N=C(NCCCOc2cccc(CN3CCCCC3)c2)c2cc(Cl)ccc21 [Example 11, N-[3-[3-[(1-piperidinyl)methyl]phenoxy]propyl]-5-chloro-1,2-benzisothiazol-3-amine 1,1-dioxide, hydrochloride]
Kb [1, 3]: 79.4 nM

SMILES: COc1ccc2c(c1)C(NCCCOc1cccc(CN3CCCCC3)c1)=NS2(=O)=O [Example 12, N-[3-[3-[(1-piperidinyl)methyl]phenoxy]propyl]-5-methoxy-1,2-benzisothiazol-3-amine 1,1-dioxide, 2/3 oxalate, ethanolate]
pA2 Value (apparent dissociation constant of the H2 antagonist) [1, 4]: 8.0

SMILES: O=S1(=O)N=C(NCCCOc2cccc(CN3CCCCCCC3)c2)c2ccccc21 [Example 26, N-[3-[3-[(octahydro-1(2H)-azocinyl)methyl]phenoxy]-propyl]-1,2-benzisothiazol-3-amine 1,1-dioxide, hydrochloride]
Kb [1, 3]: 20 nM

SMILES: O=S1(=O)N=C(NCCCOc2cccc(CNC3CCCCC3)c2)c2ccccc21 [Example 27, N-[3-[3-[(cyclohexylamino)methyl]phenoxy]propyl]-1,2-benzisothiazol-3-amine 1,1-dioxide, hydrochloride]
Kb [1, 3]: 44.7 nM

SMILES: O=S1(=O)N=C(NCCCOc2cccc(CNCc3ccco3)c2)c2ccccc21 [Example 29, N-[3-[3-[[[(2-furanyl)methyl]amino]methyl]phenoxy]-propyl]-1,2-benzisothiazol-3amine 1,1-dioxide, hydrochloride]
inhibition in vivo at 32 mg/kg [2]: 50%
Kb [1, 3]: 69.2 nM

SMILES: O=S1(=O)N=C(NCCCOc2cccc(CNCc3ccccc3)c2)c2ccccc21 [Example 30, N-[3-[3-[(benzylamino)methyl]phenoxy]propyl]-1,2-benzisothiazol-3-amine1,1-dioxide, hydrochloride, quarter hydrate]
Kb [1, 3]: 63.1 nM

SMILES: CCCCCN(CCCCC)Cc1cccc(OCCCNC2=NS(=O)(=O)c3ccccc32)c1 [Example 37, N-[3-[3-[(dipentylamino)methyl]phenoxy]propyl]-1,2-benzisothiazol-3-amine 1,1-dioxide]
inhibition in vivo at 32 mg/kg [2]: 38%

SMILES: CN(C)Cc1ccc(CSCCNC2=NS(=O)(=O)c3cscc32)o1 [Example 39, N-[2-[[[5-[(Dimethylamino)Methyl]-2-Furanyl]Methyl]Thio]Ethyl]Thieno[3,4-d]Isothiazol-3-Amine-1,1-Dioxide]
inhibition in vivo at 16 mg/kg [2]: 87%
Kb [1, 5]: 1 nM

SMILES: NC(N)=Nc1nc(CSCCNC2=NS(=O)(=O)c3cscc32)cs1 [Example 40, [4-[[[2-[(Thieno[3,4-d]Isothiazol-3-yl)Amino]Ethyl]Thio]Methyl]-2-Thiazolyl]Guanidine-S',S'-Dioxide]
Kb [1, 5]: 100 nM

SMILES: CNC(=NC#N)NCCSCc1csc(N=C(N)N)n1 [tiotidine, reference compound]
inhibition in vivo at 4 mg/kg [2]: 16%

— patent US4490527A, “Benzo-fused heterocyclic anti-ulcer agents” (American Home Products Corporation, priority 1983, dated 1984)
